For this assay, the target named is IGF-1R (Homo sapiens (Human), UniProt P08069). As to the kind of experiment: Example B-1: IGF-1R Assay (PC3 cells, IGF1 stimulation, AlphaLISA). It is filed as cell-based. As to conditions: 200 ng/mL IGF1 stimulation, read-out: Biological Activity against IGF-1R IC50. In a few lines:
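PC3 cells were serum-starved 2 h, treated with serially diluted compounds for 2 h, then stimulated with IGF1 (200 ng/mL final) for 30 min. Lysates were read by AlphaLISA; % inhibition was calculated relative to vehicle and EC80 controls, with IC50 values binned into ranges.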
On the technique in general: Bead proximity is the source of the signal in Alpha formats.
IGF-1R, sequence (P08069 31-1367): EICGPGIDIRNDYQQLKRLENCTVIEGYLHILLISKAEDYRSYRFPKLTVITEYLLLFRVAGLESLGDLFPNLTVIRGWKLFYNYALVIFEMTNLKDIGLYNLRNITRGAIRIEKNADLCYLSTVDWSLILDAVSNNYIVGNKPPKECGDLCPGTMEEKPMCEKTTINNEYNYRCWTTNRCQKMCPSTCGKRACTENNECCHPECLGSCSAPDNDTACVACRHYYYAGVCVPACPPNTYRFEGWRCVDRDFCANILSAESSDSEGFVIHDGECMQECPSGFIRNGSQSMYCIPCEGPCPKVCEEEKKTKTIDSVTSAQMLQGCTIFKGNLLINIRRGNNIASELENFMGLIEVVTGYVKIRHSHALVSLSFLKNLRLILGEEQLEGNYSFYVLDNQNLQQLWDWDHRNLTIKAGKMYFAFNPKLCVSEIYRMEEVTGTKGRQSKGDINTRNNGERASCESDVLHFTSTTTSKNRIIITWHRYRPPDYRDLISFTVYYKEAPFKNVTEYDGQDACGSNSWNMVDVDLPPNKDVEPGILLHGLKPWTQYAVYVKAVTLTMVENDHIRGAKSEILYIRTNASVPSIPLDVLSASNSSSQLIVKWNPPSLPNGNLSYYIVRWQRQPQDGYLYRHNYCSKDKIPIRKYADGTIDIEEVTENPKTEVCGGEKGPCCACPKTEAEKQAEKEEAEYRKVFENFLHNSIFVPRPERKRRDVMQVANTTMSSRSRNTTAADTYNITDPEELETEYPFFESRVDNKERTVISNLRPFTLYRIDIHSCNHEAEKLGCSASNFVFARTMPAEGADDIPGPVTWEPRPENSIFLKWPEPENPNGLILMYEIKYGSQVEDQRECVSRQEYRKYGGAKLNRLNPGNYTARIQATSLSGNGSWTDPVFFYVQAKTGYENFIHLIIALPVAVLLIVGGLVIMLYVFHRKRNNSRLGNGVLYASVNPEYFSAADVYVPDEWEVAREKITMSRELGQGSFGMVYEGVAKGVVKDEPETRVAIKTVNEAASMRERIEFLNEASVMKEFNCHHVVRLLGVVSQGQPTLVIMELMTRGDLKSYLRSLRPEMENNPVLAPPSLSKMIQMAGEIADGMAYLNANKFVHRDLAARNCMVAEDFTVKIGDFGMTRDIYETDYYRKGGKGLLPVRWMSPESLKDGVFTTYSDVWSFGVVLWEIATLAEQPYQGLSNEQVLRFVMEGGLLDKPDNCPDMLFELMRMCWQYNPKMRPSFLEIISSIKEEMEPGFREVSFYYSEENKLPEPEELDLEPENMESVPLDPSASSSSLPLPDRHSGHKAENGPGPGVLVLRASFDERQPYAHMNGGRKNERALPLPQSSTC
As usually defined, the IC50 is the concentration needed to halve the response being measured. With `O=S1(=O)CCN([C@H]2C[C@H](Oc3ccc(Nc4nccc(Nc5cnc6c(Cl)cccc6c5)n4)cc3)C2)CC1` [Compound 349], the IC50 lay in the range of 0.5 to 2 µM. `CN(C)[C@H]1C[C@@H](Oc2ccc(Nc3nccc(Nc4cnc5ccccc5c4)n3)cc2)C1` [Compound 367, 4-(3-quinolylamino)-2-{p-[(1s,3s)-3-(dimethylamino)cyclobutoxy]phenylamino}pyrimidine]: the IC50 is not above 0.5 µM. To `COc1cc(Nc2nccc(Nc3cnc4c(c3)SCCC4)n2)ccc1OCCCN1CCCCC1` [Compound 378, 4-(3,4-dihydro-2H-1-thia-5-azanaphth-7-ylamino)-2-[3-methoxy-4-(3-piperidinopropoxy)phenylamino]pyrimidine] belongs not above 0.5 µM; to `COc1cc(Nc2nccc(Nc3cnc4cc(F)c(F)cc4c3)n2)cnc1N1CCS(=N)(=O)CC1` [Compound 158, 4-(5-((4-((6,7-difluoroquinolin-3-yl)amino)pyrimidin-2-yl)amino)-3-methoxypyridin-2-yl)-1-imino-116-thiomorpholine 1-oxide], 0.5 to 2 µM; to `COc1cc(Nc2nccc(Nc3cc4cc(Br)ccc4[nH]c3=O)n2)ccc1O[C@H]1C[C@H](N(C)C)C1` [Compound 111], not above 0.5 µM. In the case of `COc1cc(Nc2nccc(Nc3cnc4ccc(Cl)cc4c3)n2)ccc1O[C@H]1C[C@H](N2CCS(=O)(=O)CC2)C1` [Compound 25, 4-[(1r,3r)-3-{4-[4-(6-chloro-3-quinolylamino)-2-pyrimidinylamino]-2-methoxyphenoxy}cyclobutyl]-1λ^6,4-thiazinane-1,1-dione] it was not above 0.5 µM; in that of `COc1cc(Nc2nccc(Nc3cnc4c(c3)CCCC4)n2)ccc1OCCCN1CCCCC1` [Compound 374, 2-[3-methoxy-4-(3-piperidinopropoxy)phenylamino]-4-(5,6,7,8-tetrahydro-3-quinolylamino)pyrimidine], not above 0.5 µM; in that of `COc1cc(Nc2nccc(Nc3cnc4ccccc4c3)n2)ccc1O[C@H]1C[C@H](N(C)C)C1` [Compound 369, 2-{3-methoxy-4-[(1r,3r)-3-(dimethylamino)cyclobutoxy]phenylamino}-4-(3-quinolylamino)pyrimidine], not above 0.5 µM. For `COc1ccc2cc(Nc3ccnc(Nc4ccc(OCCCN5CCOCC5)cc4)n3)cnc2c1` [Compound 406, 4-(7-methoxy-3-quinolylamino)-2-[p-(3-morpholinopropoxy)phenylamino]pyrimidine], the 50% inhibitory concentration (IC50) was in the range of 2 to 10 µM. As to `CC1(C)CCc2ncc(Nc3ccnc(Nc4ccc(OCCCN5CCOCC5)cc4)n3)cc2C1` [Compound 63, 4-(6,6-dimethyl-5,6,7,8-tetrahydro-3-quinolylamino)-2-[p-(3-morpholinopropoxy)phenylamino] pyrimidine], the 50% inhibitory concentration (IC50) is not above 0.5 µM. Regarding `COc1ccc2cc(Nc3ccnc(Nc4ccc(OCCCN5CCCCC5)c(OC)c4)n3)cnc2c1` [Compound 426, 2-[3-methoxy-4-(3-piperidinopropoxy)phenylamino]-4-(7-methoxy-3-quinolylamino)pyrimidine], the half-inhibitory concentration (IC50) is not above 0.5 µM. In the case of `COc1cc(Nc2nccc(Nc3ncc4c(Cl)cccc4n3)n2)ccc1O[C@H]1C[C@@H](N(C)C)C1` [Compound 306, 4-(5-chloro-2-quinazolinylamino)-2-{3-methoxy-4-[(1s,3s)-3-(dimethylamino)cyclobutoxy]phenylamino}pyrimidine] it was more than 10 µM. In the case of `COc1cc(Nc2nccc(Nc3cnc4cc(F)cnc4c3)n2)ccc1O[C@H]1C[C@@H](N(C)C)C1` [Compound 272, 4-(7-fluoro-1,5-diaza-3-naphthylamino)-2-{3-methoxy-4-[(1s,3s)-3-(dimethylamino)cyclobutoxy]phenylamino}pyrimidine], the IC50 was not above 0.5 µM.

Regarding `COc1cc(Nc2nccc(Nc3cnc4ccc(Cl)cc4c3)n2)cnc1O[C@@H]1C[C@H](N(C)C)C1(C)C` [Compound 258, 2-{6-[(1R,3S)-3-(dimethylamino)-2,2-dimethylcyclobutoxy]-5-methoxy-3-pyridylamino}-4-(6-chloro-3-quinolylamino)pyrimidine], the IC50 was not above 0.5 µM. On to `COc1cc(Nc2nccc(Nc3cnc4cc(C(F)(F)F)ccc4c3)n2)ccc1O[C@H]1C[C@H](N(C)C)C1` [Compound 341, 2-{3-methoxy-4-[(1r,3r)-3-(dimethylamino)cyclobutoxy]phenylamino}-4-[7-(trifluoromethyl)-3-quinolylamino]pyrimidine], for which the IC50 was in the range of 0.5 to 2 µM.

As for `COc1cc(Nc2nccc(Nc3cnc4c(c3)CCC(C)C4)n2)ccc1OCCCN1CCCCC1` (stereo not drawn) [Compound 69, 2-[3-methoxy-4-(3-piperidinopropoxy)phenylamino]-4-(7-methyl-5,6,7,8-tetrahydro-3-quinolylamino)pyrimidine], the IC50 is not above 0.5 µM. As to `COc1cc(Nc2nc(N)cc(Nc3cnc4cc(F)c(F)cc4c3)n2)cnc1O[C@H]1C[C@@H](N(C)C)C1` [Compound 252, 6-amino-4-(6,7-difluoro-3-quinolylamino)-2-{5-methoxy-6-[(1s,3s)-3-(dimethylamino)cyclobutoxy]-3-pyridylamino}pyrimidine], the IC50 was 2 to 10 µM. Turning to `COc1cc(Nc2nccc(Nc3cc4cccc(F)c4[nH]c3=O)n2)cnc1O[C@H]1CCN(C)C1` [Compound 166, 3-(2-{6-[(S)-1-methyl-3-pyrrolidinyloxy]-5-methoxy-3-pyridylamino}-4-pyrimidinylamino)-8-fluoro-1,2-dihydro-2-quinolinone], the IC50 is 0.5 to 2 µM. Take `COc1cc(Nc2nccc(Nc3cnc4c(c3)OCCO4)n2)cc(C#N)c1O[C@H]1C[C@H](N(C)C)C1` [Compound 44, 5-[4-(2,3-dihydro-1,4-dioxa-5-aza-7-naphthylamino)-2-pyrimidinylamino]-3-methoxy-2-[(1r,3r)-3-(dimethylamino)cyclobutoxy] benzonitrile]: the IC50 is not above 0.5 µM. For `COc1cc(Nc2nccc(Nc3cnc4c(c3)OCCO4)n2)ccc1O[C@H]1C[C@H](N2CCS(=O)(=O)CC2)C1` [Compound 359, 4-[(1r,3r)-3-{4-[4-(2,3-dihydro-1,4-dioxa-5-aza-7-naphthylamino)-2-pyrimidinylamino]-2-methoxyphenoxy}cyclobutyl]-1λ^6,4-thiazinane-1,1-dione], the IC50 is not above 0.5 µM. On to `COc1cc(Nc2nccc(Nc3cnc4c(c3)CSCC4)n2)ccc1OCCCN1CCCCC1` [Compound 377, 4-(7,8-dihydro-5H-6-thia-1-azanaphth-3-ylamino)-2-[3-methoxy-4-(3-piperidinopropoxy)phenylamino]pyrimidine], for which the IC50 is not above 0.5 µM. As to `COc1cc(Nc2nccc(Nc3cccnc3C(N)=O)n2)ccc1O[C@H]1C[C@@H](N(C)C)C1` [Compound 284, 3-(2-{3-methoxy-4-[(1s,3s)-3-(dimethylamino)cyclobutoxy]phenylamino}-4-pyrimidinylamino)-2-pyridinecarboxamide], the IC50 was not above 0.5 µM. Regarding `COc1cc(Nc2nccc(Nc3cnc4cc(C)ccc4c3)n2)ccc1OCCCN1CCCCC1` [Compound 98, 2-[3-methoxy-4-(3-piperidinopropoxy)phenylamino]-4-(7-methyl-3-quinolylamino)pyrimidine], the IC50 is not above 0.5 µM.

With `COc1cc(Nc2nccc(Nc3cnc4c(c3)CCCC4C(C)(C)C)n2)ccc1OCCCN1CCCCC1` (stereo not drawn) [Compound 74, 4-[8-(tert-butyl)-5,6,7,8-tetrahydro-3-quinolylamino]-2-[3-methoxy-4-(3-piperidinopropoxy)phenylamino] pyrimidine], the 50% inhibitory concentration (IC50) was not above 0.5 µM. Turning to `COc1cc(Nc2nccc(Nc3cnc4ncc(F)cc4c3)n2)ccc1O[C@H]1C[C@@H](N(C)C)C1` [Compound 86, 4-(6-fluoro-1,8-diaza-3-naphthylamino)-2-{3-methoxy-4-[(1s,3s)-3-(dimethylamino)cyclobutoxy]phenylamino}pyrimidine], the IC50 is not above 0.5 µM. In the case of `COc1cc(Nc2nccc(Nc3cnc4ccccc4c3)n2)ccc1OCCCN1CCOCC1` [Compound 14, 2-[3-methoxy-4-(3-morpholinopropoxy)phenylamino]-4-(3-quinolylamino)pyrimidine] it was not above 0.5 µM; in that of `COc1cc(Nc2nccc(Nc3cc4cccc(F)c4[nH]c3=O)n2)cnc1N1CCNCC1` [Compound 235, 8-fluoro-3-{2-[5-methoxy-6-(1-piperazinyl)-3-pyridylamino]-4-pyrimidinylamino}-1,2-dihydro-2-quinolinone], not above 0.5 µM; in that of `COc1cc(Nc2nccc(Nc3cnc4c(c3)CN(C)CC4)n2)ccc1OCCCN1CCCCC1` [Compound 379, 2-[3-methoxy-4-(3-piperidinopropoxy)phenylamino]-4-(6-methyl-5,6,7,8-tetrahydro-1,6-diaza-3-naphthylamino)pyrimidine], 2 to 10 µM. For the compound `c1ccc2ncc(Nc3ccnc(Nc4ccc(OCCCN5CCCCC5)c(OCC5CCCO5)c4)n3)cc2c1` (stereo not drawn) [Compound 402, 2-{4-(3-piperidinopropoxy)-3-[(tetrahydro-2-furyl)methoxy]phenylamino}-4-(3-quinolylamino)pyrimidine], the IC50 is not above 0.5 µM.

With `COc1cc(Nc2nccc(Nc3cnc4c(F)c(F)ccc4c3)n2)ccc1OCCCN1CCCCC1` [Compound 393, 4-(7,8-difluoro-3-quinolylamino)-2-[3-methoxy-4-(3-piperidinopropoxy)phenylamino]pyrimidine], the IC50 was not above 0.5 µM.

For `COc1ccc2cc(Nc3ccnc(Nc4ccc(O[C@H]5C[C@H](N6CCOCC6)C5)cc4)n3)cnc2c1` [Compound 356, 4-(7-methoxy-3-quinolylamino)-2-{p-[(1r,3r)-3-morpholinocyclobutoxy]phenylamino}pyrimidine], the IC50 was 0.5 to 2 µM. For the compound `COc1cc(Nc2nccc(Nc3cnc4cc(F)c(F)cc4c3)n2)cnc1O[C@@H]1C[C@H](N(C)C)C1(C)C` [Compound 254, 2-{6-[(1R,3S)-3-(dimethylamino)-2,2-dimethylcyclobutoxy]-5-methoxy-3-pyridylamino}-4-(6,7-difluoro-3-quinolylamino)pyrimidine], the IC50 is not above 0.5 µM.

Consider `COc1cc(Nc2nccc(Nc3cnc4cc(C5CC5)ccc4c3)n2)ccc1OCCCN1CCCCC1` [Compound 107, 4-(7-cyclopropyl-3-quinolylamino)-2-[3-methoxy-4-(3-piperidinopropoxy)phenylamino]pyrimidine], for which the IC50 is not above 0.5 µM.

These data come from patent US20250171431A1, “HETEROCYCLIC INHIBITORS OF IGF-1R FOR TREATMENT OF DISEASE” (HORIZON THERAPEUTICS IRELAND DAC, priority 2023, published 2025).
